Patent US20060216238A1, “Compositions and methods for targeting or imaging a tissue in a vertebrate subject” (priority 2005, published 2006)

Assays:
[1] = RT-PCR detection of CPMV RNA in tissues of mice inoculated orally (gavage); settings: oral; D3; Perfused
[2] = RT-PCR detection of CPMV RNA in tissues of mice inoculated i.v.; settings: for CPMV RNA detected in bone marrow, mice positive/examined / CPMV RNA detected in brain, mice positive/examined / CPMV RNA detected in duodenum, mice positive/examined / CPMV RNA detected in ileum, mice positive/examined / CPMV RNA detected in jejunum, mice positive/examined / CPMV RNA detected in kidney, mice positive/examined / CPMV RNA detected in liver, mice positive/examined / CPMV RNA detected in lung, mice positive/examined / CPMV RNA detected in spleen, mice positive/examined / CPMV RNA detected in stomach, mice positive/examined: i.v.
[3] = tested on: HUVECS stimulated with vegf; experiment: Endothelial cell proliferation assay using CFDA; format: cell-based, human; settings: 30 ug/ml; listed as wt CPMV
Method: Measure in vitro angiogenesis by endothelial cell proliferation assay. HUVECs were plated in 96 well plates at 10^4 cells/well in 200 ul EGM2 complete medium. Cells were incubated for 24 h at 37° C. in 5% CO2. cells were then washed once in PBS and incubated in serum free, glucose free medium for 24 h to suppress cell growth. Further, the cells were exposed to various treatments like 10% FBS or VEGF165 in the presence or absence of the targeting CPMV chimeras. Wild type CPMV was used as a control. After 48 h incubation, 1 μl of CFDA was added to the wells and the plated were incubated for additional 24 h. The cells were then placed on ice, washed in PBS 3× and finally fixed in cold 10% TCA for 10 minutes. After washing, the cells were lysed and the CFDA incorporation was read at 488 nm.

cowpea mosaic virus [CPMV]
CPMV RNA detected in stomach, mice positive/examined [1]: 0/3 | CPMV RNA in any tissues examined ([2]; day 5 or day 7 post-inoculation): not detected | CPMV RNA detected in bone marrow, mice positive/examined ([2]; D1, Non-perfused): 3/3 | CPMV RNA detected in brain, mice positive/examined ([2]; D1, Non-perfused): 3/3 | CPMV RNA detected in duodenum, mice positive/examined ([2]; D1, Non-perfused): 3/3 | CPMV RNA detected in ileum, mice positive/examined ([2]; D1, Non-perfused): 3/3 | CPMV RNA detected in jejunum, mice positive/examined ([2]; D1, Non-perfused): 3/3 | CPMV RNA detected in kidney, mice positive/examined ([2]; D1, Non-perfused): 3/3 | CPMV RNA detected in liver, mice positive/examined ([2]; D1, Non-perfused): 2/3 | CPMV RNA detected in lung, mice positive/examined ([2]; D1, Non-perfused): 3/3 | CPMV RNA detected in spleen, mice positive/examined ([2]; D1, Non-perfused): 3/3 | CPMV RNA detected in stomach, mice positive/examined ([2]; D1, Non-perfused): 3/3 | CPMV RNA detected in bone marrow, mice positive/examined ([2]; D1, Perfused): 3/3 | CPMV RNA detected in brain, mice positive/examined ([2]; D1, Perfused): 3/3 | CPMV RNA detected in duodenum, mice positive/examined ([2]; D1, Perfused): 2/3 | CPMV RNA detected in ileum, mice positive/examined ([2]; D1, Perfused): 3/3 | CPMV RNA detected in jejunum, mice positive/examined ([2]; D1, Perfused): 3/3 | CPMV RNA detected in kidney, mice positive/examined ([2]; D1, Perfused): 3/3 | CPMV RNA detected in liver, mice positive/examined ([2]; D1, Perfused): 3/3 | CPMV RNA detected in lung, mice positive/examined ([2]; D1, Perfused): 3/3 | CPMV RNA detected in spleen, mice positive/examined ([2]; D1, Perfused): 3/3 | CPMV RNA detected in stomach, mice positive/examined ([2]; D1, Perfused): 3/3 | CPMV RNA detected in bone marrow, mice positive/examined ([2]; D2, Non-perfused): 3/3 | CPMV RNA detected in brain, mice positive/examined ([2]; D2, Non-perfused): 3/3 | CPMV RNA detected in duodenum, mice positive/examined ([2]; D2, Non-perfused): 3/3 | CPMV RNA detected in ileum, mice positive/examined ([2]; D2, Non-perfused): 3/3 | CPMV RNA detected in jejunum, mice positive/examined ([2]; D2, Non-perfused): 3/3 | CPMV RNA detected in kidney, mice positive/examined ([2]; D2, Non-perfused): 3/3 | CPMV RNA detected in liver, mice positive/examined ([2]; D2, Non-perfused): 3/3 | CPMV RNA detected in lung, mice positive/examined ([2]; D2, Non-perfused): 3/3 | CPMV RNA detected in spleen, mice positive/examined ([2]; D2, Non-perfused): 3/3 | CPMV RNA detected in stomach, mice positive/examined ([2]; D2, Non-perfused): 3/3 | CPMV RNA detected in bone marrow, mice positive/examined ([2]; D2, Perfused): 3/3 | CPMV RNA detected in brain, mice positive/examined ([2]; D2, Perfused): 2/3 | CPMV RNA detected in duodenum, mice positive/examined ([2]; D2, Perfused): 3/3 | CPMV RNA detected in ileum, mice positive/examined ([2]; D2, Perfused): 3/3 | CPMV RNA detected in jejunum, mice positive/examined ([2]; D2, Perfused): 3/3 | CPMV RNA detected in kidney, mice positive/examined ([2]; D2, Perfused): 3/3 | CPMV RNA detected in liver, mice positive/examined ([2]; D2, Perfused): 3/3 | CPMV RNA detected in lung, mice positive/examined ([2]; D2, Perfused): 3/3 | CPMV RNA detected in spleen, mice positive/examined ([2]; D2, Perfused): 3/3 | CPMV RNA detected in stomach, mice positive/examined ([2]; D2, Perfused): 3/3 | CPMV RNA detected in bone marrow, mice positive/examined ([2]; D3, Non-perfused): 3/3 | CPMV RNA detected in brain, mice positive/examined ([2]; D3, Non-perfused): 3/3 | CPMV RNA detected in duodenum, mice positive/examined ([2]; D3, Non-perfused): 2/3 | CPMV RNA detected in ileum, mice positive/examined ([2]; D3, Non-perfused): 3/3 | CPMV RNA detected in jejunum, mice positive/examined ([2]; D3, Non-perfused): 3/3 | CPMV RNA detected in kidney, mice positive/examined ([2]; D3, Non-perfused): 3/3 | CPMV RNA detected in liver, mice positive/examined ([2]; D3, Non-perfused): 3/3 | CPMV RNA detected in lung, mice positive/examined ([2]; D3, Non-perfused): 3/3 | CPMV RNA detected in spleen, mice positive/examined ([2]; D3, Non-perfused): 3/3 | CPMV RNA detected in stomach, mice positive/examined ([2]; D3, Non-perfused): 1/3 | CPMV RNA detected in bone marrow, mice positive/examined ([2]; D3, Perfused): 3/3 | CPMV RNA detected in brain, mice positive/examined ([2]; D3, Perfused): 3/3 | CPMV RNA detected in duodenum, mice positive/examined ([2]; D3, Perfused): 3/3 | CPMV RNA detected in ileum, mice positive/examined ([2]; D3, Perfused): 3/3 | CPMV RNA detected in jejunum, mice positive/examined ([2]; D3, Perfused): 3/3 | CPMV RNA detected in kidney, mice positive/examined ([2]; D3, Perfused): 3/3 | CPMV RNA detected in liver, mice positive/examined ([2]; D3, Perfused): 3/3 | CPMV RNA detected in lung, mice positive/examined ([2]; D3, Perfused): 3/3 | CPMV RNA detected in spleen, mice positive/examined ([2]; D3, Perfused): 3/3 | CPMV RNA detected in stomach, mice positive/examined ([2]; D3, Perfused): 3/3 | effect on cell growth/proliferation [3]: did not affect cell growth/proliferation
